The values below come from patent US7605178B2, “Therapeutic compounds” (Allergan, Inc., priority 2006, dated 2009).

The structures appear in SMILES notation. Bounds are passed on as bounds.

Data set [1] has as its target T1, EP2 (Homo sapiens, UniProt P43116). As to the kind of experiment: EP2 flipr. Type of data set: cell-based. The source says:
(§1) U.S. patent application Ser. No. 11/553,143, filed on Oct. 26, 2006, incorporated by reference herein, describes the methods used to obtain the in vitro data in the table below.

The target in data set [2] is T1, EP2. Nature of the data set: EP2 cAMP. In kind it is cell-based.
Description: as §1

The target of data set [3] is T1, EP2. Nature of the data set: EP2 binding (Ki).
Description: as §1

Data set [4] addresses T2, EP4 (Homo sapiens, UniProt P35408). As to the kind of experiment: EP4 flipr. In kind it is cell-based.
Description: as §1

The target in data set [5] is T2, EP4. Nature of the data set: EP4 binding (KI).
Description: as §1

The target in data set [6] is T3, hEP3A (Homo sapiens, UniProt P43115).
T3 sequence (P43115 1-390): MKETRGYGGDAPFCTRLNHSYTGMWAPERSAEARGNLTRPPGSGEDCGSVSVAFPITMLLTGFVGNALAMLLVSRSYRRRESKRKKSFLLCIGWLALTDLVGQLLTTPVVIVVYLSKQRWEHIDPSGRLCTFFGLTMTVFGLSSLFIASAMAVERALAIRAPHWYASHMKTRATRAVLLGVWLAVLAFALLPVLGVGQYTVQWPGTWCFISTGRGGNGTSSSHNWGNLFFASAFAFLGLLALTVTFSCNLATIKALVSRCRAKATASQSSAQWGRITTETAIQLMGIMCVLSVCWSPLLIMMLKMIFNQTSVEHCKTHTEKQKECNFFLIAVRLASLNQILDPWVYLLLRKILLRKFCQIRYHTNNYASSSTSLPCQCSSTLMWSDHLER
As to the kind of experiment: Other receptors: hEP3A functional EC50. Type of data set: cell-based.
Description: as §1

In data set [7] the target is T4, hTP (Homo sapiens, UniProt P21731).
T4 sequence (P21731 1-343): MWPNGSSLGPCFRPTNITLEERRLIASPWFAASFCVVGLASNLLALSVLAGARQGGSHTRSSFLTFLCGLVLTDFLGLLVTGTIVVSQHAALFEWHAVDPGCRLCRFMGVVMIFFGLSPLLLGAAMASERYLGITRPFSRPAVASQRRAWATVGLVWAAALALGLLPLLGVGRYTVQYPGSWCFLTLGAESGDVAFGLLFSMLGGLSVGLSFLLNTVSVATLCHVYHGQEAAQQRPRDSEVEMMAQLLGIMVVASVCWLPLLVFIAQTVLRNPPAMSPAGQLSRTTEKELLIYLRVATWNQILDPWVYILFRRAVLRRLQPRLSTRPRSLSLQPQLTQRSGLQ
Nature of the data set: Other receptors: hTP functional EC50. In kind it is cell-based.
Description: as §1

For data set [8], the target named is hIP (Homo sapiens, UniProt P43119). As to the kind of experiment: Other receptors: hIP functional EC50. Type of data set: cell-based.
Description: as §1

Data set [9] deals with T5, hDP (Homo sapiens, UniProt Q13258).
T5 sequence (Q13258 1-359): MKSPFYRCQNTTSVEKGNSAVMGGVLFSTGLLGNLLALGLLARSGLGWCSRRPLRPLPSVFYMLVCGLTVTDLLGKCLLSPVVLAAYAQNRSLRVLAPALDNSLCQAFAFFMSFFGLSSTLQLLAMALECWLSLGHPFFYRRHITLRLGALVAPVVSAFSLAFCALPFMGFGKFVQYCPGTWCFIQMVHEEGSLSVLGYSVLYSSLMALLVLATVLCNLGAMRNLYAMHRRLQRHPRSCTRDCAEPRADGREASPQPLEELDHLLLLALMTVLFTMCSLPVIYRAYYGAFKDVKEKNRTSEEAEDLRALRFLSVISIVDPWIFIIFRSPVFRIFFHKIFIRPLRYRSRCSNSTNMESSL
Nature of the data set: Other receptors: hDP functional EC50. Type of data set: cell-based.
Description: as §1

For data set [10], the system named is normotensive dogs. Nature of the data set: Intraocular pressure and ocular surface hyperemia in normotensive dogs. In kind it is in vivo. Particulars: 0.01%, once daily for 5 days. On the procedure:
(§2) U.S. Pat. No. 7,091,231 describes the methods used for these in vivo tests.
5-(3-((1R,2R,3R,5R)-5-chloro-2-((3,5-dichlorophenylthio)methyl)-3-hydroxycyclopentyl)propyl)-thiophene-2-carboxylic acid (20) was tested in normotensive dogs at 0.01%, dosing once daily for 5 days. The maximum intraocular pressure (IOP) decrease from baseline was 6.3 mmHg (35%) at 6 h; the maximum ocular surface hyperemia (OSH) score was 1.7 at 52 h.

Data set [11] has as its system laser-induced hypertensive monkeys. As to the kind of experiment: Intraocular pressure in laser-induced hypertensive monkeys. Type of data set: in vivo. Particulars: 0.01%, one single day dose, at 24 h. As to the method:
as §2
The composition and dosage regimen of In vivo example 1 was also tested in laser-induced hypertensive monkeys, using one single day dose. At 0.01%, the maximum IOP decrease from baseline was 13.9 mmHg (40%) at 24 h.

A word on the EC50: it is the concentration that produces a half-maximal response. Low readings indicate greater potency, high ones weaker potency. The term Ki denotes a dissociation constant, usually derived from enzyme kinetics or from competition with a known ligand. A higher Ki goes with a looser hold on the target.

T2 sequence (P35408 whole entry): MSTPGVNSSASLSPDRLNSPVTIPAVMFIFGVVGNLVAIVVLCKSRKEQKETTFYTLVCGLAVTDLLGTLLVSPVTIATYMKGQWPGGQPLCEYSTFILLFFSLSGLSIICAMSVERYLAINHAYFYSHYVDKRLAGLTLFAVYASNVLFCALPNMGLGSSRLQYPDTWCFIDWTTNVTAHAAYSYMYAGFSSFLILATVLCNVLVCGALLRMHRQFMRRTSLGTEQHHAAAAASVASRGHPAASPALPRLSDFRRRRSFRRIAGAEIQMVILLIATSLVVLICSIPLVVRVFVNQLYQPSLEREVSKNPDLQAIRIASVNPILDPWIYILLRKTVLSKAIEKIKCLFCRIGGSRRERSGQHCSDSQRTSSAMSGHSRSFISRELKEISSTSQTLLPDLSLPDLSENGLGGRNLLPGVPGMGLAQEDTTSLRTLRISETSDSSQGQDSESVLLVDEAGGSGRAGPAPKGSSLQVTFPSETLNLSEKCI
Sequence of hIP (P43119 whole entry): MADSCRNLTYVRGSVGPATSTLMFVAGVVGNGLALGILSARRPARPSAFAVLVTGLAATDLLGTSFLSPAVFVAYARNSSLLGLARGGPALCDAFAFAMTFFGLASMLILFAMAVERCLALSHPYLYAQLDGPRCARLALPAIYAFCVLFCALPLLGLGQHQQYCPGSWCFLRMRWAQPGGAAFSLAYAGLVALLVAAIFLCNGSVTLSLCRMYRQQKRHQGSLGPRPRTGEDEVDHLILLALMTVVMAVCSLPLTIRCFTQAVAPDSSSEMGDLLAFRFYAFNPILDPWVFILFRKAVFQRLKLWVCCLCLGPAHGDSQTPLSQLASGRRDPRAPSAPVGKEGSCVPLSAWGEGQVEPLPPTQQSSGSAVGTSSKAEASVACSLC
T1 sequence (P43116 whole entry): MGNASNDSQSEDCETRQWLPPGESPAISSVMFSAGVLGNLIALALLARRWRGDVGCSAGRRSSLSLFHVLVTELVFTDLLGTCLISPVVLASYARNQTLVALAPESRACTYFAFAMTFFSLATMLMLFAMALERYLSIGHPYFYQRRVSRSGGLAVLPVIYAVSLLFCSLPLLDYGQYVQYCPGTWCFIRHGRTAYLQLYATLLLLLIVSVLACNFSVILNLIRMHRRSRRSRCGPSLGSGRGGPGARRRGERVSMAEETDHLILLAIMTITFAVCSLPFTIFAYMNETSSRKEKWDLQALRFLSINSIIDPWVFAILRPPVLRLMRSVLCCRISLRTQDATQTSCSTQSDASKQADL

Consider `O=C(O)CCC/C=C\C[C@@H]1[C@@H](CSc2cc(Cl)cc(Cl)c2)[C@H](O)C[C@H]1Cl` [compound 5, (Z)-7-[(1R,2R,3R,5R)-5-Chloro-2-(3,5-dichloro-phenylsulfanylmethyl)-3-hydroxy-cyclopentyl]-hept-5-enoic acid], for which the EC50 in [1] is 3.36 µM; in [2], 0.0004 µM; in [4] it was greater than 10 µM; in [6], greater than 10000 nM; in data set [7], 1720 nM; in [8] it was greater than 10000 nM. In data set [9], this molecule yielded an EC50 greater than 10000 nM. Besides, the Ki is 0.022 µM in [3] and 0.376 µM in data set [5].
For the molecule `CC(=O)N(C[C@@H]1[C@@H](C/C=C\CCCC(=O)O)[C@H](Cl)C[C@H]1O)c1cc(Cl)cc(Cl)c1` [compound 10, (Z)-7-((1R,2S,3R,5R)-2-{[Acetyl-(3,5-dichloro-phenyl)-amino]-methyl}-5-chloro-3-hydroxy-cyclopentyl)-hept-5-enoic acid], the EC50 in data set [1] is 6.37 µM; in data set [2] it was 0.029 µM; in data set [7] it was 2680 nM; in data set [8], greater than 10000 nM. Moreover, the Ki in data set [3] is 2.09 µM; in [5], greater than 10 µM.
With `O=C(O)CCC/C=C\C[C@@H]1[C@@H](CNc2cc(Cl)cc(Cl)c2)[C@H](O)C[C@H]1Cl` [compound 11, (Z)-7-{(1R,2S,3R,5R)-5-Chloro-2-[(3,5-dichloro-phenylamino)-methyl]-3-hydroxy-cyclopentyl}-hept-5-enoic acid], the EC50 was 0.135 µM in data set [1]; 0.0005 µM in [2]; greater than 10 µM in [4]; greater than 10000 nM in [6]; greater than 10000 nM in [7]; greater than 10000 nM in [8]. Also, the Ki in [3] is 0.018 µM; in [5], 1.03 µM.
In the case of `O=C(O)c1ccc(CCC[C@@H]2[C@@H](CNc3cc(Cl)cc(Cl)c3)[C@H](O)C[C@H]2Cl)s1` [compound 15, 5-(3-((1R,2S,3R,5R)-5-chloro-2-((3,5-dichlorophenylamino)methyl)-3-hydroxycyclopentyl)propyl)-thiophene-2-carboxylic acid], the EC50 in data set [1] is greater than 10 µM; in [2], 0.11 µM. Also, the Ki in data set [3] is 0.336 µM.
Consider `O=C(O)c1ccc(CCC[C@@H]2[C@@H](CSc3cc(Cl)cc(Cl)c3)[C@H](O)C[C@H]2Cl)s1` [compound 20, 5-(3-((1R,2R,3R,5R)-5-chloro-2-((3,5-dichlorophenylthio)methyl)-3-hydroxycyclopentyl)propyl)-thiophene-2-carboxylic acid], for which the figures for the EC50 in data set [1], in data set [2] and in data set [4] were 0.059 µM, 0.00011 µM and greater than 10 µM, respectively. For the same molecule, the Ki amounted to 0.0003 µM in [3] and 0.828 µM in [5]. The “maximum intraocular pressure (IOP) decrease from baseline (percent)” value in data set [10] (at 6 h) is listed as 35%. For the same molecule, in data set [10] (at 52 h), the “maximum ocular surface hyperemia (OSH) score” value is on record as 1.7. The “maximum IOP decrease from baseline” value in data set [11] amounted to 13.9 mmHg. In addition, the “maximum IOP decrease from baseline (percent)” value in [11] worked out at 40%.
Take `O=C(O)c1ccc(CCC[C@@H]2[C@@H](C[S+]([O-])c3cc(Cl)cc(Cl)c3)[C@H](O)C[C@H]2Cl)s1` (stereo partly drawn) [compound 22, 5-(3-((1R,2R,3R,5R)-5-chloro-2-((3,5-dichlorophenylsulfinyl)methyl)-3-hydroxycyclopentyl)propyl)-thiophene-2-carboxylic acid]: the EC50 came out at 0.101 µM in [1], 0.0004 µM in data set [2] and 4210 nM in data set [7]. In addition, the Ki in [3] was 0.012 µM; in data set [5], greater than 10 µM.
With `O=C(O)c1ccc(CCC[C@@H]2[C@@H](CSc3cc(F)cc(F)c3)[C@H](O)C[C@H]2Cl)s1` [compound 25, 5-(3-((1R,2R,3R,5R)-5-chloro-2-((3,5-difluorophenylthio)methyl)-3-hydroxycyclopentyl)propyl)-thiophene-2-carboxylic acid], the EC50 in data set [1] was 0.85 µM; in data set [2], 0.0013 µM; in [4] it was greater than 10 µM. In addition, the Ki was found to be 0.009 µM in data set [3] and 2.33 µM in [5].
